Tested on: primary human dermal papilla cells
Assay: Survival of metabolically stressed primary human dermal papilla cells (ATP, Cell Titer Glo)
Format: cell-based
Set-up: unit not given here
Conditions: DP cells metabolically stressed 48 hours in reduced media, ATP by Cell Titer Glo, vehicle = 0
Description: Primary human dermal papilla cells were metabolically stressed for 48 hours in reduced standard tissue culture media. During this period of stress the cells were treated with the mixtures below dosed from a DMSO vehicle. After 48 hours the metabolic activity of the cells was measured by the amount of ATP using the Cell Titer Glo™ kit (Promega).
The dermal papilla, in normal human hair, is the control center for hair diameter. Increasing survival of dermal papilla cells in situ leads to increased hair diameter. Accordingly, an increase in survival of dermal papilla cells correlates with an increase in hair diameter.

Row | Structure (SMILES) | Survival (Table 2A) | Survival (Table 2B) | Survival (Table 3) | Survival (Table 1A) | Survival (Table 1B)
1 | OCc1c[nH]c2ccccc12 [Example I3C, Indole-3-Carbinol] | −0.16 | 0.08 | – | – | –
2 | OCCc1c[nH]c2ccccc12 [HI, Tryptophol] | – | – | 1.72 | – | –
3 | O=C(O)Cc1c[nH]c2ccccc12 [IAA, indole-3-acetic acid] | – | – | – | −0.17 | −0.18
4 | NC(=O)c1cccnc1 [Niacinamide, niacinamide] | −0.16 | 0.1 | – | −0.02 | −0.02
5 | CC(C)(CO)[C@@H](O)C(=O)NCCCO [Panthenol, panthenol] | −0.01 | −0.13 | – | −0.17 | −0.17
